Laboratory results reported in patent US8623832B2, “Peptide compositions that bind TLR-4” (The Board of Regents of the University of Oklahoma, priority 2011, dated 2014).
Where no end group is shown, it is not given here.

Test system: SW480 cells
Experiment: Cell cycle analysis of SW480 cells by flow cytometry
Type: cell-based, human
Settings: SPA4 10, 50 and 100 μM; over 40 h
Protocol: Cell cycle analysis: The effect of SPA4 peptide on cell cycle progression was studied by flow-cytometry. About 500,000 cells were seeded per well into 6 well plate. The cells were challenged with LPS (100 ng/ml) for 4 hours. After the completion of 4 hours LPS-challenge period, SPA4 peptide (10, 50 and 100 μM) was added to the cells. Cells were further incubated for 20 and 40 hours. Vehicle-treated cells were also included. After 20 and 40 hours of total incubation period, both adherent and non-adherent cells were collected and centrifuged at 260×g for 5 minutes. The supernatant was discarded and cell pellet was washed with DPBS (Invitrogen-Gibco, NY). The cells were fixed in 70% ice-cold ethanol on ice for 1 hour and stained with a buffer containing 200 μg/ml DNase-free RNase A (Sigma, St Louis, Mo.), 0.1% v/v Triton-X 100 and 20 μg/ml propidium iodide (Molecular Probes, Carlsbad, Calif.). The cells were incubated at 4° C. for 30 minutes in the dark, before measuring cell fluorescence using Becton Dickson FACS Calibur flow cytometer. The single cells were selected by gating out the aggregates and the percent number of cell populations in different cell cycle phases were calculated by de-convoluting the results ModFIT software (Verity software house, Topsham, Me.).

GDFRYSDGTPVNYTNWYRGE [SPA4, GDFRYSDGT PVNYTNWYRGE]
cell cycle progression of SW480 cells: did not affect
